Data from patent publication US10035760B2, “Inhibitors of human immunodeficiency virus replication” (priority 2013, dated 2018).
Read-outs that look alike come from different tables or passages of the source.

Test system: recombinant NL4-3 virus (Renilla luciferase) in MT-2 cells
Test: HIV cell culture assay (antiviral activity, luciferase readout in infected MT-2 cells)
Assay type: cell-based
Conditions: Renilla
Procedure, shortened: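 EC50 derived via median-effect equation from luciferase activity in MT-2 cells after 4–5 day infection, compound serially diluted. Virus: recombinant NL4-3 with Renilla luciferase replacing part of nef, made in 293T cells.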

[1] = NL43, read-out: Activity, antiviral activity class, recombinant NL4-3 Renilla luciferase virus in MT-2 cells
[2] = NL43, recombinant NL4-3 Renilla luciferase virus in MT-2 cells

Compound	EC50 [1]	EC50 [2]
COc1cccc(C[C@H](NC(=O)NS(=O)(=O)c2ccccc2C)C(=O)N(C)c2ccc3c(c2)OCO3)c1 [Example 78, (S)—N-(benzo[d][1,3]dioxol-5-yl)-3-(3-methoxyphenyl)-N-methyl-2-(3-(o-tolylsulfonyl)ureido)propanamide]	100 to 1000 nM	–
Cc1ccccc1S(=O)(=O)NC(=O)N[C@@]1(C(=O)N(C)c2ccc3c(c2)OCO3)C[C@H]1c1ccccc1 [Example 79, (1S,2S)—N-(benzo[d][1,3]dioxol-5-yl)-N-methyl-2-phenyl-1-(3-(o-tolylsulfonyl)ureido)cyclopropanecarboxamide]	10000 to 100000 nM	–
Cc1ccccc1S(=O)(=O)NC(=O)N[C@@H](Cc1cccc(C(N)=O)c1)C(=O)N(C)c1ccc2c(c1)OCO2 [Example 80, (S)-3-(3-(benzo[d][1,3]dioxol-5-yl(methyl)amino)-3-oxo-2-(3-(o-tolylsulfonyl)ureido)propyl)benzamide]	–	> 100000 nM
Cc1ccccc1S(=O)(=O)NC(=O)N[C@@H](Cc1cccc(S(=O)(=O)N2CCOCC2)c1)C(=O)N(C)c1ccc2c(c1)OCO2 [Example 81, (S)—N-(benzo[d][1,3]dioxol-5-yl)-N-methyl-3-(3-(morpholinosulfonyl)phenyl)-2-(3-(o-tolylsulfonyl)ureido)propanamide]	10000 to 100000 nM	–
Cc1ccccc1S(=O)(=O)NC(=O)N[C@@H](Cc1ccc(O)cc1)C(=O)N(C)c1ccc2c(c1)OCO2 [Example 82, (S)—N-(benzo[d][1,3]dioxol-5-yl)-3-(4-hydroxyphenyl)-N-methyl-2-(3-(o-tolylsulfonyl)ureido)propanamide]	1000 to 10000 nM	–
Cc1ccccc1S(=O)(=O)NC(=O)N[C@@H](Cc1cccc2ccccc12)C(=O)N(C)c1ccc2c(c1)OCO2 [Example 83, (S)—N-(benzo[d][1,3]dioxol-5-yl)-N-methyl-3-(naphthalen-1-yl)-2-(3-(o-tolylsulfonyl)ureido)propanamide]	1000 to 10000 nM	4280 nM
Cc1ccccc1S(=O)(=O)NC(=O)N[C@H](C(=O)N(C)c1ccc2c(c1)OCO2)[C@H]1CCc2ccccc21 [Example 84, (S)—N-(benzo[d][1,3]dioxol-5-yl)-2-((S)-2,3-dihydro-1H-inden-1-yl)-N-methyl-2-(3-(o-tolylsulfonyl)ureido)acetamide]	10000 to 100000 nM	22100 nM
Cc1ccccc1S(=O)(=O)NC(=O)N[C@@H](Cc1cccc(F)c1)C(=O)N(C)c1ccc2c(c1)OCO2 [Example 85, (S)—N-(benzo[d][1,3]dioxol-5-yl)-3-(3-fluorophenyl)-N-methyl-2-(3-(o-tolylsulfonyl)ureido)propanamide]	100 to 1000 nM	–
CN(C(=O)[C@@H](Cc1ccccc1)NC(=O)NS(=O)(=O)c1ccccc1)c1ccc2c(c1)OCO2 [Example 86]	10000 to 100000 nM	–
CN(C(=O)[C@H](Cc1ccccc1)NC(=O)NS(=O)(=O)c1ccccc1)c1ccccc1 [Example 87, (S)—N-methyl-N, 3-diphenyl-2-(3-(phenylsulfonyl)ureido)propanamide]	100 to 1000 nM	–
CN(C(=O)[C@H](Cc1ccccc1)NC(=O)NS(=O)(=O)c1ccccc1)c1ccc(Cl)cc1 [Example 88]	100 to 1000 nM	450 nM
COc1cccc(N(C)C(=O)[C@H](Cc2ccccc2)NC(=O)NS(=O)(=O)c2ccccc2)c1 [Example 89]	100 to 1000 nM	–
Cc1cccc(N(C)C(=O)[C@H](Cc2ccccc2)NC(=O)NS(=O)(=O)c2ccccc2)c1 [Example 90]	100 to 1000 nM	–
CN(C(=O)[C@H](Cc1ccccc1)NC(=O)NS(=O)(=O)c1ccccc1)c1ccc(F)cc1 [Example 91]	100 to 1000 nM	–
COc1ccc(N(C)C(=O)[C@H](Cc2ccccc2)NC(=O)NS(=O)(=O)c2ccccc2)cc1 [Example 92]	100 to 1000 nM	–
CN(C(=O)[C@H](Cc1ccccc1)NC(=O)NS(=O)(=O)c1ccccc1)c1cccc(F)c1 [Example 93]	1000 to 10000 nM	1590 nM
CN(C(=O)[C@H](Cc1ccccc1)NC(=O)NS(=O)(=O)c1ccccc1)c1cccc2ccccc12 [Example 94, (S)—N-methyl-N-(naphthalen-1-yl)-3-phenyl-2-(3-(phenylsulfonyl)ureido)-propanamide]	10000 to 100000 nM	–
COc1ccccc1N(C)C(=O)[C@H](Cc1ccccc1)NC(=O)NS(=O)(=O)c1ccccc1 [Example 95, (S)—N-(2-methoxyphenyl)-N-methyl-3-phenyl-2-(3 (phenylsulfonyl)ureido)-propanamide]	1000 to 10000 nM	–

Compound	EC50 [1]	EC50 [2]
CCN(CC)CCN(C)C(=O)[C@H](Cc1ccccc1)NC(=O)NS(=O)(=O)c1ccccc1 [Example 96, (S)—N-(2-(diethylamino)ethyl)-N-methyl-3-phenyl-2-(3-(phenylsulfonyl)ureido)propanamide]	–	> 100000 nM
Cc1nc(-c2ccc(CN(C)C(=O)[C@H](Cc3ccccc3)NC(=O)NS(=O)(=O)c3ccccc3)cc2)no1 [Example 97, (S)—N-methyl-N-(4-(5-methyl-1,2,4-oxadiazol-3-yl)benzyl)-3-phenyl-2-(3-(phenylsulfonyl)ureido)propanamide]	1000 to 10000 nM	–
CN(C(=O)[C@H](Cc1ccccc1)NC(=O)NS(=O)(=O)c1c(F)cccc1F)c1ccc2c(c1)OCO2 [Example 98, (S)—N-(benzo[d][1,3]dioxol-5-yl)-2-(3-((2,6-difluorophenyl)sulfonyl)ureido)-N-methyl-3-phenylpropanamide]	< 100 nM	90 nM
CN(C(=O)[C@H](Cc1ccccc1)NC(=O)NS(=O)(=O)c1cc(F)ccc1F)c1ccc2c(c1)OCO2 [Example 99, (S)—N-(benzo[d][1,3]dioxol-5-yl)-2-(3-((2,5-difluorophenyl)sulfonyl)ureido)-N-methyl-3-phenylpropanamide]	100 to 1000 nM	150 nM
CN(C(=O)[C@H](Cc1ccccc1)NC(=O)NS(=O)(=O)c1c(Cl)cccc1Cl)c1ccc2c(c1)OCO2 [Example 100, (S)—N-(benzo[d][1,3]dioxol-5-yl)-2-(3-((2,6-dichlorophenyl)sulfonyl)ureido)-N-methyl-3-phenylpropanamide]	< 100 nM	–
CN(C(=O)[C@H](Cc1ccccc1)NC(=O)NS(=O)(=O)Cc1ccccc1Cl)c1ccc2c(c1)OCO2 [Example 101, (S)—N-(benzo[d][1,3]dioxol-5-yl)-2-(3-((2-chlorobenzyl)sulfonyl)ureido)-N-methyl-3-phenylpropanamide]	100 to 1000 nM	–
CN(C(=O)[C@H](Cc1ccccc1)NC(=O)NS(=O)(=O)Cc1ccc(Cl)c(Cl)c1)c1ccc2c(c1)OCO2 [Example 102, (S)—N-(benzo[d][1,3]dioxol-5-yl)-2-(3-((3,4-dichlorobenzyl)sulfonyl)ureido)-N-methyl-3-phenylpropanamide]	100 to 1000 nM	–
CN(C(=O)[C@H](Cc1ccccc1)NC(=O)NS(=O)(=O)Cc1cccc(Cl)c1)c1ccc2c(c1)OCO2 [Example 103, (S)—N-(benzo[d][1,3]dioxol-5-yl)-2-(3-((3-chlorobenzyl)sulfonyl)ureido)-N-methyl-3-phenylpropanamide]	100 to 1000 nM	–
Cc1ccccc1CS(=O)(=O)NC(=O)N[C@@H](Cc1ccccc1)C(=O)N(C)c1ccc2c(c1)OCO2 [Example 104, (S)—N-(benzo[d][1,3]dioxol-5-yl)-N-methyl-2-(3-((2-methylbenzyl)sulfonyl)ureido)-3-phenylpropanamide]	100 to 1000 nM	620 nM
CN(C(=O)[C@H](Cc1ccccc1)NC(=O)NS(=O)(=O)Cc1ccc(C(F)(F)F)cc1)c1ccc2c(c1)OCO2 [Example 105, (S)—N-(benzo[d][1,3]dioxol-5-yl)-N-methyl-3-phenyl-2-(3-((4-(trifluoromethyl)benzyl)sulfonyl)ureido)propanamide]	100 to 1000 nM	–
CC(C)C1CC1S(=O)(=O)NC(=O)N[C@@H](Cc1ccccc1)C(=O)N(C)c1ccc2c(c1)OCO2 (stereo partly drawn) [Example 106, (2S)—N-(benzo[d][1,3]dioxol-5-yl)-2-(3-((2-isopropylcyclopropyl)sulfonyl)ureido)-N-methyl-3-phenylpropanamide]	100 to 1000 nM	–
CN(C(=O)[C@H](Cc1ccccc1)NC(=O)NS(=O)(=O)C1(Cc2ccccc2)CC1)c1ccc2c(c1)OCO2 [Example 107, (S)—N-(benzo[d][1,3]dioxol-5-yl)-2-(3-((1-benzylcyclopropyl)sulfonyl)ureido)-N-methyl-3-phenylpropanamide]	1000 to 10000 nM	–
COc1ccccc1S(=O)(=O)NC(=O)N[C@@H](Cc1ccccc1)C(=O)N(C)c1ccc2c(c1)OCO2 [Example 108, (S)—N-(benzo[d][1,3]dioxol-5-yl)-2-(3-((2-methoxyphenyl)sulfonyl)ureido)-N-methyl-3-phenylpropanamide]	100 to 1000 nM	–
CN(C(=O)[C@H](Cc1ccccc1)NC(=O)NS(=O)(=O)Cc1ccc(Cl)cc1)c1ccc2c(c1)OCO2 [Example 109, (S)—N-(benzo[d][1,3]dioxol-5-yl)-2-(3-((4-chlorobenzyl)sulfonyl)ureido)-N-methyl-3-phenylpropanamide]	100 to 1000 nM	–
CN(C(=O)[C@H](Cc1ccccc1)NC(=O)NS(=O)(=O)Cc1ccc(F)cc1)c1ccc2c(c1)OCO2 [Example 110, (S)—N-(benzo[d][1,3]dioxol-5-yl)-2-(3-((4-fluorobenzyl)sulfonyl)ureido)-N-methyl-3-phenylpropanamide]	100 to 1000 nM	160 nM
CN(C(=O)[C@H](Cc1ccccc1)NC(=O)NS(=O)(=O)C1CCCCC1)c1ccc2c(c1)OCO2 [Example 111, (S)—N-(benzo[d][1,3]dioxol-5-yl)-2-(3-(cyclohexylsulfonyl)ureido)-N-methyl-3-phenylpropanamide]	100 to 1000 nM	–
CCN(C(=O)[C@H](Cc1ccccc1)NC(=O)NS(=O)(=O)c1cccc(Br)c1)c1ccc(OC)cc1 [Example 112, (S)-2-(3-((3-bromophenyl)sulfonyl)ureido)-N-ethyl-N-(4-methoxyphenyl)-3-phenylpropanamide]	< 100 nM	–
CCN(C(=O)[C@H](Cc1ccccc1)NC(=O)NS(=O)(=O)c1ccccc1[N+](=O)[O-])c1ccc(OC)cc1 [Example 113, (S)—N-ethyl-N-(4-methoxyphenyl)-2-(3-((2-nitrophenyl)sulfonyl)ureido)-3-phenylpropanamide]	< 100 nM	–
